From US9309276B2, “Synthetic lipid A derivative” (University of Georgia Research Foundation, Inc., priority 2007, dated 2016)
Read-outs that look alike come from different tables or passages of the source.

Experiments:
Assay type in all cases: cell-based
RAW 264.7 γNO(−) cells = assay: Cytokine induction and ELISAs in mouse macrophages (RAW 264.7 γNO(−) cells); conditions: for EC50: Example II, ELISA, best-fit value; for EC50 / TNF-α and IFN-β production, dose response (in words): supernatant, 5.5 h; for TNF-α and IFN-β production, dose response (in words): wide range of concentrations
Procedure: Mouse macrophages (RAW 264.7 γNO(−) cells) were exposed over a wide range of concentrations to compounds 1-5 and E. coli 055:B5 LPS. After 5.5 hours, the supernatants were harvested and examined for mouse TNF-α and IFN-β using a commercial and in-house developed capture ELISA assay, respectively. Potencies (EC50, concentration producing 50% activity) and efficacies (maximal level of production) were determined by fitting the dose-response curves to a logistic equation using PRISM software. […] It has also been shown that removal of the KDO moieties by mild acidic treatment reduces cellular responses (Demchenko et al., J. Am. Chem. Soc. 2003, 125, 6103-6112).
Having established the EC50 values of TNF-α and IFN-β secretion by compounds 1-5 and E. coli 055:B5 LPS, attention was focused on IL-6, IP-10, RANTES, and IL-1β responses. Thus, the previously harvested supernatants were analyzed for these cytokines using capture ELISA assays (FIG. 4, Table 1). For IL-6, IP-10, and RANTES, a short incubation time of 5.5 hrs was sufficient for detection. To achieve significant IL-1β secretion, the incubation had to be extended to 24 hrs. […] IL-1β is expressed as a pro-protein (pro-IL-1β), which is cleaved by caspase-1 into its active form (IL-1β), which is then secreted. Indeed, analyzing IL-1β of the cell lysates by Western blotting confirmed that it was present as a pro-protein (data not shown). TNF-α is also produced as a pro-protein, which is proteolitically cleaved by tumor necrosis factor-α converting enzyme (TACE) (Skotnicki and Levin, Annu. Rep. Med. Chem. 2003, 38, 153-162; Duffy et al., Thromb. Haemost. 2003, 89, 622-631). […] Furthermore, for each of the synthetic compounds and LPS, EC50 values of secreted TNF-α and intracellular pro-IL-1β were very similar. However, EC50 values for secreted mature IL-1β were larger by as much as 100-fold.
RAW 264.7 γNO(−) cells were plated on the day of the exposure assay as 2×10^5 cells/well in 96-well tissue culture plates (Nunc). Cells were incubated with different stimuli for 5.5 and 24 hours in replicates of five. Culture supernatants were then collected, pooled, and stored frozen (−80° C.) until assayed for cytokine production. After removal of the supernatant, cells were lysed by adding PBS containing Tween 20 (0.01%) and BSA (1%) in the same volume as that of the supernatant and sonicating for 5 min. The cell lysates were pooled and stored frozen (−80° C.) until assayed for cytokine production.
All cytokine ELISAs were performed in 96-well MaxiSorp plates (Nunc). Cytokine DuoSet ELISA Development Kits (R&D Systems) were used for the cytokine quantification of mouse TNF-α, IL-6, IP-10, RANTES, and IL-1β according to the manufacturer's instructions. The absorbance was measured at 450 nm with wavelength correction set to 540 nm using a microplate reader (BMG Labtech). Concentrations of IFN-β in culture supernatants were determined as follows. ELISA MaxiSorp plates were coated with rabbit polyclonal antibody against mouse IFN-β (PBL Biomedical Laboratories). IFN-β in standards and samples was allowed to bind to the immobilized antibody. Rat anti-mouse IFN-β antibody (USBiological) was then added, producing an antibody-antigen-antibody “sandwich”. Next, horseradish peroxidase (HRP) conjugated goat anti-rat IgG (H+L) antibody (Pierce) and a chromogenic substrate for HRP 3,3′,5,5′-tetramethylbenzidine (TMB; Pierce) were added. After the reaction was stopped, the absorbance was measured at 450 nm with wavelength correction set to 540 nm. All cytokine values are presented as the means±SD of triplicate measurements, with each experiment being repeated three times.
Concentration-response data were analyzed using nonlinear least-squares curve fitting in Prism (GraphPad Software, Inc.). […] The Hillslope was set at 1 to be able to compare the EC50 values of the different inducers. […]

human TLR2 = molecular target: T1, human TLR2 (Homo sapiens, UniProt O60603); assay: NF-κB activation in HEK 293T cells stably transfected with human TLR2; conditions: 103/104 at 0.1, 1 and 10 μg mL−1; Pam3CysSK4 1 μg mL−1; 4 h
T1 construct: host or cells: HEK 293T
Procedure: (§1) Induction of NF-κB activation was determined in triplicate cultures of HEK 293T cells stably transfected with human or mouse (a) TLR4/MD2/CD14 and (b) TLR2 and transiently transfected with pELAM-Luc and pRL-TK plasmids. Forty-four h post-transfection, cells were treated with (B) E. coli LPS (10 ng mL^−1), (C) Pam3CysSK4 (1 μg mL^−1), (D, E and F) 103 (0.1, 1 and 10 μg mL^−1, respectively), (G, H and I) 104 (0.1, 1 and 10 μg mL^−1, respectively) or (A) were left untreated (control). Forty-eight h post-transfection, NF-κB activation was determined by firefly luciferase activity relative to Renilla luciferase activity. n.a. indicates not analyzed.
(§2) To examine the ability of the synthetic compounds to induce activation of NF-κB, HEK 293T cells were employed that were stably transfected with various immune receptors and transiently transfected with a plasmid containing the reporter gene pELAM-Luc (NF-κB-dependent firefly luciferase reporter vector) and a plasmid containing the control gene pRL-TK (Renilla luciferase control reporter vector) (FIG. 11). […] Although compound 104 is a weak activator of mouse TLR4, it could not induce the secretion of cytokines.
(§3) The day before transfection, HEK 293T wild type cells and HEK 293T cells stably transfected with human and murine TLR4/MD2/CD14 and human and murine TLR2 were plated in 96-well tissue culture plates (16,000 cells/well). The next day, cells were transiently transfected using PolyFect Transfection Reagent (Qiagen) with expression plasmids pELAM-Luc (NF-κB-dependent firefly luciferase reporter plasmid, 50 ng/well) (Chow et al., J. Biol. Chem., 1999, 274, 10689-10692) and pRL-TK (Renilla luciferase control reporter vector, 1 ng/well; Promega) as an internal control to normalize experimental variations. […] The luciferase activity was measured using the Dual-Luciferase Reporter Assay System (Promega) according to the manufacturer's instructions and a combination luminometer/fluorometer microplate reader (BMG Labtech). […]

mouse TLR2 = molecular target: T2, mouse TLR2 (Mus musculus, UniProt Q9QUN7); assay: NF-κB activation in HEK 293T cells stably transfected with mouse TLR2; conditions: 103/104 at 0.1, 1 and 10 μg mL−1; Pam3CysSK4 1 μg mL−1; 4 h
T2 construct: host or cells: HEK 293T
Procedure: as §1, §2, §3

[1] = at the highest concentration tested

T2 sequence (Q9QUN7 25-784): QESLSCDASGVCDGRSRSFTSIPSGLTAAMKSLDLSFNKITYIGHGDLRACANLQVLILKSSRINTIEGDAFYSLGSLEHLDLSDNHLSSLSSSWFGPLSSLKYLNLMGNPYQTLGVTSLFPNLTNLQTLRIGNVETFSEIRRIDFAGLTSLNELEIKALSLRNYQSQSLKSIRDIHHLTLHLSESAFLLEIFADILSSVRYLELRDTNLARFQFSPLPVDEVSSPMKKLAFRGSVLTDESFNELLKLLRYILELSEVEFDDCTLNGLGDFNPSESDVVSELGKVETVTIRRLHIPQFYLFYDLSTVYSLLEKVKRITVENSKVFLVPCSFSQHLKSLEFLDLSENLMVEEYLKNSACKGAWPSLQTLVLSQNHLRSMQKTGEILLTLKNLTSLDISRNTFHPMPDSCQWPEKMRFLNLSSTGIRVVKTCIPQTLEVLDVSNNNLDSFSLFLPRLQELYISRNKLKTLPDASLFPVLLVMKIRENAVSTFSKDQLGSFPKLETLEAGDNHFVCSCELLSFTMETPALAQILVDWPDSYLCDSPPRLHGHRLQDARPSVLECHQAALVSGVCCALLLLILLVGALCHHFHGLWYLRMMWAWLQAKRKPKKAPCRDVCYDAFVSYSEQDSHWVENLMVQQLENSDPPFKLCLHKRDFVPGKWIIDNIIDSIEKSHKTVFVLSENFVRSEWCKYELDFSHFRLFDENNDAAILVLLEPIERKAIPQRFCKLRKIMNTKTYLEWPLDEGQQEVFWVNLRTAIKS
T1 sequence (O60603 21-784): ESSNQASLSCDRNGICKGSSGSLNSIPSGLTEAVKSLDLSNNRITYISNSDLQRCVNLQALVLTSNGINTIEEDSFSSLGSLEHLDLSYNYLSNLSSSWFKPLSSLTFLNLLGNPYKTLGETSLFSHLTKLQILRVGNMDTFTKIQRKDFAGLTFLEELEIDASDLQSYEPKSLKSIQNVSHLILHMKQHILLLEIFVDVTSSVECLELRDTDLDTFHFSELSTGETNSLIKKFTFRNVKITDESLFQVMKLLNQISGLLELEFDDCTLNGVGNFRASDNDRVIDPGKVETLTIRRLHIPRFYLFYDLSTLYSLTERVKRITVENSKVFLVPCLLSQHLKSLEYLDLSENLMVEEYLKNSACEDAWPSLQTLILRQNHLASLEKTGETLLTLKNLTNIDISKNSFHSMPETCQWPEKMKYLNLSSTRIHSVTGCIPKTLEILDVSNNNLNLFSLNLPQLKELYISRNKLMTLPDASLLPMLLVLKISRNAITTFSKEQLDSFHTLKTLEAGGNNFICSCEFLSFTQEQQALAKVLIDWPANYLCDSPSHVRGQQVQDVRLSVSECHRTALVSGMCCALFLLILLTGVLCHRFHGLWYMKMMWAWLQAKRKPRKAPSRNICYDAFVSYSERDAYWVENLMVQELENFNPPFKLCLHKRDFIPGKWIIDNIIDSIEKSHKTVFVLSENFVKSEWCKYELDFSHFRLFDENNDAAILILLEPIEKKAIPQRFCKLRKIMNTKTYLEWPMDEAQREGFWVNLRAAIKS

Compound	EC50 (RAW 264.7 γNO(−) cells; read-out: EC50 IFN-β) [nM]	EC50 (RAW 264.7 γNO(−) cells; read-out: EC50 TNF-α) [nM]	TNF-α and IFN-β production, dose response (in words) (RAW 264.7 γNO(−) cells)	also measured
3-O—[(R)-3-Hydroxy-dodecanoyl]-2-deoxy-2-[(R)-3-dodecanoyloxy-tetradecanoylamino]-(R)-D-glucopyranosyl-(1→6)-2-[(R)-3-hydroxy-dodecanoylamino]-3-O—[(R)-3-dodecanoyloxy-dodecanoyl]-2-deoxy-α-D-glucopyranoside 1,4′-bisphosphate [lipid A 51]	4	1.5		
CCCCCCCCCCCCCCCC(=O)O[C@H](CCCCCCCCCCC)CC(=O)N[C@H]1[C@@H](OP(=O)(O)O)O[C@H](CO[C@@H]2O[C@H](CO)[C@@H](OP(=O)(O)O)[C@H](OC(=O)C[C@@H](CCCCCCCCCCC)OC(=O)CCCCCCCCCCCCC)[C@H]2NC(=O)C[C@@H](CCCCCCCCCCC)OC(=O)CCCCCCCCCCC)[C@@H](O)[C@@H]1OC(=O)C[C@H](O)CCCCCCCCCCC [Lipid A 3, 6-O-{2-Deoxy-2-[(R)-3-dodecanoyloxy-tetradecanoylamino]-3-O—[(R)-3-tetradecanoyloxy-tetradecanoyl]-β-D-glucopyranosyl}-2-deoxy-2-[(R)-3-hexadecanoyl-tetradecanoylamino]-3-O—[(R)-3-hydroxy-tetradecanoyl]-α-D-glucopyranose 1,4′-bisphosphate]			only a partial response at the highest concentration tested	formation of IL-6, RANTES, and IL-1β (RAW 264.7 γNO(−) cells; [1]): no formation; production of TNF-α, IFN-β, and IP-10 (RAW 264.7 γNO(−) cells; [1]): induced the production
CCCCCCCCCCCCCCCC(=O)O[C@H](CCCCCCCCCCC)CC(=O)N[C@@H]1[C@@H](OC(=O)C[C@H](O)CCCCCCCCC)[C@H](O)[C@@H](CO[C@@H]2O[C@H](CO)[C@@H](O)[C@H](OC(=O)C[C@@H](CCCCCCCCC)OC(=O)CCCCCCCCCCC)[C@H]2NC(=O)C[C@@H](CCCCCCCCCCC)OC(=O)CCCCCCCCCCC)O[C@@H]1O [Lipid A 5, 6-O-{2-Deoxy-3-O—[(R)-3-dodecanoyloxy-dodecanoyl]-2-[(R)-3-dodecanoyloxy-tetradecanoylamino]-β-D-glucopyranosyl}-2-deoxy-2-[(R)-3-hexadecanoyloxy-tetredecanoylamino]-3-O—[(R)-3-hydroxy-dodecanoyl]-α-D-glucopyranose]			inactive	
(3-Deoxy-α-D-manno-oct-2-ulopyranosyl)onate-(2->6)-3-O—[(R)-3-hydroxy-dodecanoyl]-2-deoxy-2-[(R)-3-dodecanoyloxy-tetradecanoyl]-(R)-D-glucopyranosyl-(1→6)-3-O—[(R)-3-hydroxy-dodecanoyl]-2-deoxy-2-[(R)-3-dodecanoyloxy-tetradecanoyl]-α-D-glucopyranose 1,4′-biphosphate [lipid A 53]	0.2	0.092		
Pam3CysSK4 [reference compound]				NF-κB activation, human TLR2 (human TLR2): able to activate; NF-κB activation, mouse TLR2 (mouse TLR2): able to activate
